Assay results reported in patent US20070049593A1 (priority 2004, published 2007).
Where a name gives a salt, the structure may show the parent alone.

Biological target: T1, HCV polymerase (Hepatitis C virus genotype 1b, UniProt P26663)
T1 construct: a region encoding NS5B (J Virol 1991 March, 65(3), 1105-13, 544 amino acids after deletion of 47 amino acids on the C-terminal); 6xHis (C); made in house; host or cells: Escherichia coli
Test: biochemical
Design: species or system HCV BK strain
Details: not given
In short: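 Recombinant HCV BK-strain NS5B (C-terminal 47 aa deleted, His6-tagged, E. coli), 0.5 μg/ml, run with 5 μg/ml in vitro-transcribed RNA template (polyU/3′X), ATP/GTP/CTP 50 μM, UTP 2 μM plus [3H]UTP, pH 7.5, 25° C, 90 min. TCA-precipitated RNA counted by scintillation; IC50 from activity with vs without compound.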

T1 sequence (P26663 2420-2963): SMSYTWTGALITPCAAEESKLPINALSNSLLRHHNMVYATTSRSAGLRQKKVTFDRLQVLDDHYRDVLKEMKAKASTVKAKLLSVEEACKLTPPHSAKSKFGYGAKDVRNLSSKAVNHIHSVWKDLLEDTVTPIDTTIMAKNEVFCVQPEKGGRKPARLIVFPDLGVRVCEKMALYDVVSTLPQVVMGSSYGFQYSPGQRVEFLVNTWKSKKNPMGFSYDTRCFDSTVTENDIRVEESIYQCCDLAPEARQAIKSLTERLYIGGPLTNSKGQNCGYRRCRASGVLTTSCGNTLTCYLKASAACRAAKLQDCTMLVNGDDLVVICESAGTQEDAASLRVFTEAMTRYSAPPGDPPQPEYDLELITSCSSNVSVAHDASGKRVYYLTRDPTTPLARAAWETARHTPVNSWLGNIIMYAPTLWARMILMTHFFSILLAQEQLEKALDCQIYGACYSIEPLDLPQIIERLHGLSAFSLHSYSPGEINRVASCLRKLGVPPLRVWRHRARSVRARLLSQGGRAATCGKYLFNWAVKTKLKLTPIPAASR

Row | Structure (SMILES) | IC50
1 | CC(C)N1CCCC(CCCN2CCn3c(c(C4CCCCC4)c4ccc(C(=O)O)cc43)-c3ccc(Cl)cc32)C1 (stereo not shown) [Example 1-396, 3-chloro-13-cyclohexyl-5-[3-(1-isopropylpiperidin-3-yl)propyl]-6,7-dihydro-5H-benzo[5,6][1,4]diazepino[7,1-a]indole-10-carboxylic acid dihydrochloride] | < 100 nM
2 | COCC[C@@H]1CCCN(CCN2CCn3c(c(C4CCCCC4)c4ccc(C(=O)O)cc43)-c3ccc(Cl)cc32)C1 [Example 1-397, 3-chloro-13-cyclohexyl-5-{2-[(S)-3-(2-methoxyethyl)piperidin-1-yl]ethyl}-6,7-dihydro-5H-benzo[5,6][1,4]diazepino[7,1-a]indole-10-carboxylic acid dihydrochloride] | < 100 nM
3 | COCC[C@H]1CCCN(CCN2CCn3c(c(C4CCCCC4)c4ccc(C(=O)O)cc43)-c3ccc(Cl)cc32)C1 [Example 1-398, 3-chloro-13-cyclohexyl-5-{2-[(R)-3-(2-methoxyethyl)piperidin-1-yl]ethyl}-6,7-dihydro-5H-benzo[5,6][1,4]diazepino[7,1-a]indole-10-carboxylic acid dihydrochloride] | < 100 nM
4 | O=C(O)c1ccc2c(C3CCCC3)c3n(c2c1)CCN(CCN1CCCCC1)c1ccccc1-3 [Example 1-399, 13-cyclopentyl-5-[2-(piperidin-1-yl)ethyl]-6,7-dihydro-5H-benzo[5,6][1,4]diazepino[7,1-a]indole-10-carboxylic acid monohydrochloride] | < 100 nM
5 | CCN1CCCC(OCCN2CCn3c(c(C4CCCCC4)c4ccc(C(=O)O)cc43)-c3ccc(Cl)cc32)C1 (stereo not shown) [Example 1-400, 3-chloro-13-cyclohexyl-5-[2-(1-ethylpiperidin-3-yloxy)ethyl]-6,7-dihydro-5H-benzo[5,6][1,4]diazepino[7,1-a]indole-10-carboxylic acid dihydrochloride] | < 100 nM
6 | Cc1nc(COc2ccc3c(c2)N(CCN2CCCCC2)CCn2c-3c(C3CCCCC3)c3ccc(C(=O)O)cc32)cs1 [Example 1-401, 13-cyclohexyl-3-(2-methylthiazol-4-ylmethoxy)-5-[2-(piperidin-1-yl)ethyl]-6,7-dihydro-5H-benzo[5,6][1,4]diazepino[7,1-a]indole-10-carboxylic acid dihydrochloride] | < 100 nM
7 | Cc1nc(C)c(COc2ccc3c(c2)N(CCN2CCCCC2)CCn2c-3c(C3CCCCC3)c3ccc(C(=O)O)cc32)s1 [Example 1-402, 13-cyclohexyl-3-(2,4-dimethylthiazol-5-ylmethoxy)-5-[2-(piperidin-1-yl)ethyl]-6,7-dihydro-5H-benzo[5,6][1,4]diazepino[7,1-a]indole-10-carboxylic acid dihydrochloride] | < 100 nM
8 | CCN(CCCN1CCn2c(c(C3CCCCC3)c3ccc(C(=O)O)cc32)-c2ccc(Cl)cc21)C(C)C [Example 1-403, 3-chloro-13-cyclohexyl-5-[3-(N-ethyl-N-isopropylamino)propyl]-6,7-dihydro-5H-benzo[5,6][1,4]diazepino[7,1-a]indole-10-carboxylic acid dihydrochloride] | < 100 nM
9 | O=C(O)c1ccc2c(C3CCCCC3)c3n(c2c1)CCN(CC[C@@H]1CCCN(C2CCCC2)C1)c1cc(Cl)ccc1-3 [Example 1-404, 3-chloro-13-cyclohexyl-5-[2-((S)-1-cyclopentylpiperidin-3-yl)ethyl]-6,7-dihydro-5H-benzo[5,6][1,4]diazepino[7,1-a]indole-10-carboxylic acid dihydrochloride] | < 100 nM
10 | CC(C)OCC1CCCN(CCN2CCn3c(c(C4CCCCC4)c4ccc(C(=O)O)cc43)-c3ccccc32)C1 (stereo not shown) [Example 1-405, 13-cyclohexyl-5-[2-(3-isopropoxymethylpiperidin-1-yl)ethyl]-6,7-dihydro-5H-benzo[5,6][1,4]diazepino[7,1-a]indole-10-carboxylic acid dihydrochloride] | < 100 nM
11 | CC(C)OCC1CCCN(CCN2CCn3c(c(C4CCCCC4)c4ccc(C(=O)O)cc43)-c3ccc(Cl)cc32)C1 (stereo not shown) [Example 1-406, 3-chloro-13-cyclohexyl-5-[2-(3-isopropoxymethylpiperidin-1-yl)ethyl]-6,7-dihydro-5H-benzo[5,6][1,4]diazepino[7,1-a]indole-10-carboxylic acid dihydrochloride] | < 100 nM
12 | Cc1ccc2c(c1)N(CCN1CCCC(COC(C)C)C1)CCn1c-2c(C2CCCCC2)c2ccc(C(=O)O)cc21 (stereo not shown) [Example 1-407, 13-cyclohexyl-5-[2-(3-isopropoxymethylpiperidin-1-yl)ethyl]-3-methyl-6,7-dihydro-5H-benzo[5,6][1,4]diazepino[7,1-a]indole-10-carboxylic acid dihydrochloride] | < 100 nM
13 | O=C(O)c1ccc2c(C3CCCCC3)c3n(c2c1)CCN(CC[C@H]1CCCN(C2CCCC2)C1)c1cc(Cl)ccc1-3 [Example 1-408, 3-chloro-13-cyclohexyl-5-[2-((R)-1-cyclopentylpiperidin-3-yl)ethyl]-6,7-dihydro-5H-benzo[5,6][1,4]diazepino[7,1-a]indole-10-carboxylic acid dihydrochloride] | < 100 nM
14 | COCC[C@H]1CCCN(CCN2CCn3c(c(C4CCCCC4)c4ccc(C(=O)O)cc43)-c3ccc(C)cc32)C1 [Example 1-409, 13-cyclohexyl-5-{2-[(R)-3-(2-methoxyethyl)piperidin-1-yl]ethyl}-3-methyl-6,7-dihydro-5H-benzo[5,6][1,4]diazepino[7,1-a]indole-10-carboxylic acid dihydrochloride] | < 100 nM
15 | CCCN1CCCC(CCN2CCn3c(c(C4CCCCC4)c4ccc(C(=O)O)cc43)-c3ccc(C)cc32)C1 (stereo not shown) [Example 1-410, 13-cyclohexyl-3-methyl-5-[2-(1-propylpiperidin-3-yl)ethyl]-6,7-dihydro-5H-benzo[5,6][1,4]diazepino[7,1-a]indole-10-carboxylic acid dihydrochloride] | < 100 nM
16 | CCN1CCCC(CCCN2CCn3c(c(C4CCCCC4)c4ccc(C(=O)O)cc43)-c3ccc(Cl)cc32)C1 (stereo not shown) [Example 1-411, 3-chloro-13-cyclohexyl-5-[3-(1-ethylpiperidin-3-yl)propyl]-6,7-dihydro-5H-benzo[5,6][1,4]diazepino[7,1-a]indole-10-carboxylic acid dihydrochloride] | < 100 nM
17 | O=C(O)c1ccc2c(C3CCCCC3)c3n(c2c1)CCN(CCCC1CCCN(C2CCCC2)C1)c1cc(Cl)ccc1-3 (stereo not shown) [Example 1-412, 3-chloro-13-cyclohexyl-5-[3-(1-cyclopentylpiperidin-3-yl)propyl]-6,7-dihydro-5H-benzo[5,6][1,4]diazepino[7,1-a]indole-10-carboxylic acid dihydrochloride] | < 100 nM
18 | COCC[C@@H]1CCCN(CCN2CCn3c(c(C4CCCCC4)c4ccc(C(=O)O)cc43)-c3ccc(C)cc32)C1 [Example 1-413, 13-cyclohexyl-5-{2-[(S)-3-(2-methoxyethyl)piperidin-1-yl]ethyl}-3-methyl-6,7-dihydro-5H-benzo[5,6][1,4]diazepino[7,1-a]indole-10-carboxylic acid dihydrochloride] | < 100 nM
19 | CC(C)N1CCCC(CCN2CCn3c(c(C4CCCC4)c4ccc(C(=O)O)cc43)-c3ccc(Cl)cc32)C1 (stereo not shown) [Example 1-414, 3-chloro-13-cyclopentyl-5-[2-(1-isopropylpiperidin-3-yl)ethyl]-6,7-dihydro-5H-benzo[5,6][1,4]diazepino[7,1-a]indole-10-carboxylic acid monohydrochloride] | < 100 nM
20 | O=C(O)c1ccc2c(C3CCCCC3)c3n(c2c1)CCN(CCCCN1CCCCC1)c1cc(Cl)ccc1-3 [Example 1-415, 3-chloro-13-cyclohexyl-5-[4-(piperidin-1-yl)butyl]-6,7-dihydro-5H-benzo[5,6][1,4]diazepino[7,1-a]indole-10-carboxylic acid] | < 100 nM
21 | COC[C@H]1CCCN(CCN2CCn3c(c(C4CCCCC4)c4ccc(C(=O)O)cc43)-c3ccc(C)cc32)C1 [Example 1-417, 13-cyclohexyl-5-[2-((S)-3-methoxymethylpiperidin-1-yl)ethyl]-3-methyl-6,7-dihydro-5H-benzo[5,6][1,4]diazepino[7,1-a]indole-10-carboxylic acid dihydrochloride] | < 100 nM
22 | CS(=O)(=O)c1cccc(COc2ccc3c(c2)N(CCN2CCCCC2)CCn2c-3c(C3CCCCC3)c3ccc(C(=O)O)cc32)c1 [Example 1-418, 13-cyclohexyl-3-(3-methanesulfonylbenzyloxy)-5-[2-(piperidin-1-yl)ethyl]-6,7-dihydro-5H-benzo[5,6][1,4]diazepino[7,1-a]indole-10-carboxylic acid dihydrochloride] | < 100 nM
23 | CC[C@@H]1CCCN(CCN2CCn3c(c(C4CCCCC4)c4ccc(C(=O)O)cc43)-c3ccc(C)cc32)C1 [Example 1-420, 13-cyclohexyl-5-[2-((R)-3-ethylpiperidin-1-yl)ethyl]-3-methyl-6,7-dihydro-5H-benzo[5,6][1,4]diazepino[7,1-a]indole-10-carboxylic acid dihydrochloride] | < 100 nM
24 | CC[C@H]1CCCN(CCN2CCn3c(c(C4CCCCC4)c4ccc(C(=O)O)cc43)-c3ccc(C)cc32)C1 [Example 1-422, 13-cyclohexyl-5-[2-((S)-3-ethylpiperidin-1-yl)ethyl]-3-methyl-6,7-dihydro-5H-benzo[5,6][1,4]diazepino[7,1-a]indole-10-carboxylic acid dihydrochloride] | < 100 nM

Same assay, conditions: read-out: HCV polymerase inhibitory activity IC50; 25° C., 90 min; [5,6-3H]UTP incorporation into RNA

Row | Structure (SMILES) | IC50
25 | COC[C@@H]1CCCN(CCN2CCn3c(c(C4CCCCC4)c4ccc(C(=O)O)cc43)-c3ccc(C)cc32)C1 [Example 1-416, 13-cyclohexyl-5-[2-((R)-3-methoxymethylpiperidin-1-yl)ethyl]-3-methyl-6,7-dihydro-5H-benzo[5,6][1,4]diazepino[7,1-a]indole-10-carboxylic acid dihydrochloride] | < 100 nM
